For orientation: EC50 means the concentration that produces a half-maximal response.

The subject of the assay is glioblastoma brain cancer cell line LN-229. The experiment in a line: Cytotoxicity assay (CCK8 viability). In kind it is cell-based. The note with it: Homo sapiens, cytotoxicity against LN-229 cells, 18 hours incubation. On the procedure:
Cytoxocity assay: Cells were seeded on a 96 well polystyrene plate in full serum media at a density of 75,000 cells per milliliter, 100 μL per well. Plates were incubated at 37° C. and 5% CO2 for 24 hours to allow cell attachment. Drug solutions were prepared in DMSO at 100× concentration and mixed 1:100 in 1% FBS media to yield the desired concentration. Drug-media mixtures were vortexed immediately prior to administration to cells. Full serum media was removed and replaced with drug-media mixtures and incubated for 18 hours. 10 μL of Cell Counting Kit 8 (CCK8, Dojindo# CK04-11) was added to each well to colormetrically assess viability. After 2-4 hours of incubation with the CCK8 dye, absorbance was read at 450 nm by a BioTek Synergy 2 plate reader.
The cytotoxicity of selected compounds against the glioblastoma brain cancer cell line LN-229 is depicted in Table 1.
Regarding `CCCCCCC(C)(C)c1nc(O)c2c(n1)OC(C)(C)[C@H]1CC[C@@H](C)C[C@@H]21` [Compound 6b, (6aS,9R,10aR)-6,6,9-Trimethyl-3-(2-methyloctan-2-yl)-6a,7,8,9,10,10a-hexahydro-6H-isochromeno[3,4-d]pyrimidin-1-ol], the half-maximal effective concentration (EC50) stood at 27.3 µM. The value for `C[C@@H]1CC[C@H]2[C@@H](C1)c1c(O)nc(C(C)(C)C3CCCCC3)nc1OC2(C)C` [Compound 6d, (6aS,9R,10aR)-3-(2-Cyclohexylpropan-2-yl)-6,6,9-trimethyl-6a,7,8,9,10,10a-hexahydro-6H-isochromeno[3,4-d]pyrimidin-1-ol] was 10.6 µM; that for `C[C@@H]1CC[C@H]2[C@@H](C1)c1c(O)nc(C(C)(C)c3cccs3)nc1OC2(C)C` [Compound 6e, (6aS,9R,10aR)-6,6,9-Trimethyl-3-(2-(thiophen-2-yl)propan-2-yl)-6a,7,8,9,10,10a-hexahydro-6H-isochromeno[3,4-d]pyrimidin-1-ol] was 30.1 µM.

(Values after US8324228B2, “Pyrimidine classical cannabinoid compounds and related methods of use” (priority 2008, dated 2012).)
